What was measured:
Assay in all cases: O2 consumption (Clark electrode), activation of AOX in inverted membrane vesicles
Format in all cases: biochemical
[1] = target: T1, GmAOX2D (Glycine max, UniProt O03376); settings: activator; 2.5 mM NADH, 5 mM DTT, 1 mM KCN, pH 7.0; read-out: Present study / K1/2 PYR
T1 construct: gene AOX3; mature form, predicted mitochondrial target peptide removed, new start Met (forward primer encodes M-STLPEVK), pET22b(+), E. coli BHH8 inverted membrane vesicles; apparent 31 kDa; reduced (DTT)
T1 sequence (O03376 51-326): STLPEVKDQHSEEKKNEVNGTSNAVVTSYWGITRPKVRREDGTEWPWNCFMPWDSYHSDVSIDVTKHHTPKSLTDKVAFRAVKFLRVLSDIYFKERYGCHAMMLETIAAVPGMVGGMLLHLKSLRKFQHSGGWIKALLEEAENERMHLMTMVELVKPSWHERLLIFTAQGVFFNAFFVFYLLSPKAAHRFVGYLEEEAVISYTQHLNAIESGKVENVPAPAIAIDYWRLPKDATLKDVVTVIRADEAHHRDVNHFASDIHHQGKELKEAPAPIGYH
Text: O2 consumption (Clark electrode), activation of AOX in inverted membrane vesicles on GmAOX2D

[2] = target: T2, GmAOX1 (Glycine max, UniProt Q07185); settings: activator; 2.5 mM NADH, 5 mM DTT, 1 mM KCN, pH 7.0; discussion text b26 prints 6 μM; read-out: Present study / K1/2 PYR
T2 construct: gene AOX1; mature form, predicted mitochondrial target peptide removed, new start Met (forward primer encodes M-ESTLALS), pET22b(+), E. coli BHH8 inverted membrane vesicles; apparent 28 kDa; reduced (DTT)
T2 sequence (Q07185 42-321): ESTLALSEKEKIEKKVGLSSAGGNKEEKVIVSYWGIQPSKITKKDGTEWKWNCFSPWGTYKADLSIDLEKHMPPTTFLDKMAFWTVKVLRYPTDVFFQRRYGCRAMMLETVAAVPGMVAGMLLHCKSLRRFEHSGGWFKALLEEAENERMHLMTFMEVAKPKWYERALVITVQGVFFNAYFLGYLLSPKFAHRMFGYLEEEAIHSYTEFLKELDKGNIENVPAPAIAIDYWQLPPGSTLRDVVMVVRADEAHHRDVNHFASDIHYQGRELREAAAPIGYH
Text: O2 consumption (Clark electrode), activation of AOX in inverted membrane vesicles on GmAOX1

[3] = target: T3, GmAOX2A (Glycine max, UniProt Q41266); settings: activator; 2.5 mM NADH, 5 mM DTT, 1 mM KCN, pH 7.0; discussion text b26 prints 90 μM; read-out: Present study / K1/2 PYR
T3 construct: gene AOX2; mature form, predicted mitochondrial target peptide removed, new start Met (forward primer encodes M-MVSPA), pET22b(+), E. coli BHH8 inverted membrane vesicles; apparent 29 kDa; reduced (DTT)
T3 sequence (Q41266 58-333): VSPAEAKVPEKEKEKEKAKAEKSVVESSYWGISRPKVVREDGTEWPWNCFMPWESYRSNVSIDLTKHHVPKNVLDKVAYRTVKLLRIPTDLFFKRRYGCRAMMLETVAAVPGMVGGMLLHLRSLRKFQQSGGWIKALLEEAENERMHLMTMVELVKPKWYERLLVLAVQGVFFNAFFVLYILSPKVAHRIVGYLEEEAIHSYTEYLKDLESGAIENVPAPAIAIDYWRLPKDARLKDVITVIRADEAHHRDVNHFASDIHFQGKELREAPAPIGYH
Text: O2 consumption (Clark electrode), activation of AOX in inverted membrane vesicles on GmAOX2A

- EC50 [1]: 40 µM
- EC50 [2]: 4 µM
- EC50 [3]: 99 µM
Compound: CC(=O)C(=O)O [pyruvate]
